Entries after “also recorded” stand apart in the source; their conditions may differ.
Key:
E0771 tumors = assay: syngeneic E0771 tumor model with radiation therapy; type: in vivo, C57BL/6 mice; details: for response to radiation therapy (tumor volume): 50 μg in 100 μL PBS daily injection combined with RT 16 Gy, versus RT alone, FIG. 8A
Protocol: Syngeneic E0771 tumors were implanted in the lower mammary gland of C57BL/6 mice and allowed to grow to approximately […]. Mice were then enrolled on study (n=5/group) and treated with either PBS (Control), IL4/13 blocking peptide CSRM53567 (50 μg in 100 μL PBS, daily injection), radiation therapy (RT) alone (16 Gy) or combination of CSRM53567 peptide and RT. Mice were measured at the indicated time points with digital calipers and the resulting volume was calculated. ** p<0.01. […] There were fewer CD4+ T cells and more CD8+ T cells as a percentage of the CD45+ leukocytes in the tumors that received radiation therapy and the IL4/13 blocking peptide compared to radiation alone. […] The cytokines and CD45+ cells were all harvested at end point which is about two weeks post-RT.

[1] = test system: mouse IL-4/IL-13-induced M2 polarization; assay: in vitro titration assay of IL-4/IL-13-induced M2 polarization; type: cell-based; details: at 1 μM
Excerpt: Antibodies and flow cytometry: All antibodies used for flow cytometry were purchased from Biolegend, unless indicated. For surface staining, murine cells were stained with the following antibodies: APC-CD45.2 (109814, 1:200), PE/Cy7-CD4 (100528, 1:300), Percp/Cy5.5-CD11b (101228, 1:200), BV421-F4/80 (123137, 1:200), APC/Cy7-CD11C (117324, 1:200), PE-IL-411.a (144803 1:100), AF488-CD206 (141710, 1:100), AF700-MHCII (107622, 1:300), PB-Ly6C (128014, 1:200), PE/Cy7-Ly-6G (127617, 1:300), PE-FcεRIα (134307, 1:200), AF488-ckit (105815, 1:200), APC-eFluor780-CD45.1 (47-0453-82, eBioscience, 1:200) and PE-Siglec-F (562068, BD Biosciences, 1:200). Human cells were stained with PE/Cy7-CD14 (301814,1:100), AF488-CD206 (321114, 1:50) and APC-CD68 (333810, 1:100). […]
Cell preparation and in vitro cultures: Pancreatic leukocytes were isolated using collagenase digestion method described previously for flow cytometry analysis (Xue, J., et al. Aryl hydrocarbon receptor regulates pancreatic IL-22 production and protects mice from acute pancreatitis. Gastroenterology 143, 1670-1680 (2012)). […] Isolated PSCs were ready for use after the second passage. […] On day 6, human macrophages are ready for use (Vijayan, D. Isolation and differentiation of monocytes-macrophages from human blood. Methods Mol. Biol. 844, 183-187 (2012)). […]

human macrophages = assay: M2 polarization of human macrophages by hPSC conditioned medium; type: cell-based; details: hPSC_CM pretreated with 1 μM, 24 h; FIG. 6G
Protocol: IL-4/IL-13-blocking peptide (IL4/13BP i.p., 50 μg per mouse, 5 days per week) was administrated to mice 2 weeks after starting CP induction and mice were killed as previous after 4 weeks of caerulein injections. […] (unpaired two-tailed Student's t-test). […] Scale bar, 200 μm. […] Scale bar: 50 μm. FIG. 6D and FIG. 6E show RT-PCR analysis of α-SMA and Col1α1 (Collagen1A1) gene expression in the pancreas of indicated mice. Means±s.e.m. (unpaired two-tailed Student's t-test). […] Means±s.e.m. (unpaired two-tailed Student's t-test). In FIG. 6G human macrophages as above were cultured with control medium (Con), conditioned medium from hPSCs (hPSC_CM) or hPSC_CM pretreated with 1 μM IL4/13BP (hPSC_CM+BP) for 24h. Expression of CD206 (% CD206^+ macrophages) was analysed using flow cytometry.
Antibodies and flow cytometry: All antibodies used for flow cytometry were purchased from Biolegend, unless indicated. […]
Cell preparation and in vitro cultures: Pancreatic leukocytes were isolated using collagenase digestion method described previously for flow cytometry analysis (Xue, J., et al. Aryl hydrocarbon receptor regulates pancreatic IL-22 production and protects mice from acute pancreatitis. Gastroenterology 143, 1670-1680 (2012)). […] Isolated PSCs were ready for use after the second passage. […]

[2] = test system: caerulein-induced CP mice; assay: caerulein-induced chronic pancreatitis (CP) mouse model; type: in vivo; details: for pancreas fibrosis (relative pancreas weight, H&E, Trichrome, α-SMA, Collagen1A1) / alternative activation of pancreatic macrophages (CD206 expression, flow cytometry): established CP; for pancreas fibrosis (relative pancreas weight, H&E, Trichrome, α-SMA, Collagen1A1): FIG. 6A-6E; for alternative activation of pancreatic macrophages (CD206 expression, flow cytometry): FIG. 6F
Excerpt: As indicated herein, agents that inhibit IL-4/IL-13 receptor function such as CRSM53567 will have benefit in several fibrosis and cancer diseases. In this design a commonly used model to cause chronic pancreatitis in rodents was created. In this model, the animal is given the cholecystokinin analogue, Caerulein, as a set of 6 intraperitoneal injections over a day repeated 3 times a week for 4 weeks. […] CD206 is a marker of the type II macrophage while MHCII is highly expressed on type I macrophage.
Pancreatitis model and treatment: AP was induced with caerulein injection in mice as previously described (Xue, J., et al. Aryl hydrocarbon receptor regulates pancreatic IL-22 production and protects mice from acute pancreatitis. Gastroenterology 143, 1670-1680 (2012); Xue, J. & Habtezion, A. Carbon monoxide-based therapy ameliorates acute pancreatitis via TLR4 inhibition. J. Clin. Invest. 124, 437-447 (2014)). CP was induced by repetitive caerulein injections (Lerch, M. M. & Gorelick, F. S. Models of acute and chronic pancreatitis. Gastroenterology 144, 1180-1193 (2013); Treiber, M. et al. Myeloid, but not pancreatic, RelA/p65 is required for fibrosis in a mouse model of chronic pancreatitis. Gastroenterology 141, e1471-e1477 (2011)). In brief, mice were given six hourly intraperitoneal (i.p.) injections of 50-μg kg^−1 body weight caerulein (Sigma-Aldrich) 3 days per week, for a total of 4 weeks. Mice were then killed and analyzed 3 days after the last caerulein injection. For blocking peptide study all mice were given caerulein injection 3 days per week for a total of 4 weeks as above, and 2 weeks following start of the caerulein injection mice were either given vehicle control (PBS) or IL-4/IL-13-blocking peptide ([…], 100 μl daily for 5 days per week×2 weeks) until being killed 4 weeks and 3 days later as above.
Histology and immunofluorescence: Mice were killed by CO2 inhalation, and then their pancreata were rapidly removed. Pancreas pieces were immediately fixed in 10% formalin or frozen in Tissue-Tek OCT compound. Fixed tissues were sectioned and used for haemotoxylin and eosin and Trichrome staining (performed in the Histo-Tec Laboratory). Frozen tissues were also sectioned for immunofluorescence staining with indicated antibodies and analyzed with confocal microscopy.
Antibodies and flow cytometry: All antibodies used for flow cytometry were purchased from Biolegend, unless indicated. For surface staining, murine cells were stained with the following antibodies: APC-CD45.2 (109814, 1:200), PE/Cy7-CD4 (100528, 1:300), Percp/Cy5.5-CD11b (101228, 1:200), BV421-F4/80 (123137, 1:200), APC/Cy7-CD11C (117324, 1:200), PE-IL-411.a (144803 1:100), AF488-CD206 (141710, 1:100), AF700-MHCII (107622, 1:300), PB-Ly6C (128014, 1:200), PE/Cy7-Ly-6G (127617, 1:300), PE-FcεRIα (134307, 1:200), AF488-ckit (105815, 1:200), APC-eFluor780-CD45.1 (47-0453-82, eBioscience, 1:200) and PE-Siglec-F (562068, BD Biosciences, 1:200). Human cells were stained with PE/Cy7-CD14 (301814,1:100), AF488-CD206 (321114, 1:50) and APC-CD68 (333810, 1:100). For intracellular cytokine staining, cells were activated with phorbol myristate acetate (50 ng ml^−1) and ionomycin (1 μg ml^−1), in the presence of brefeldin A (10 μg ml^−1, eBioscience) for 4h at 37° C. before staining. The cells were then fixed and permeabilized using the eBioscience kit following the manufacturer's guidelines. APC-IL10 (554468, 1:100) and isotype control (556924, 1:100) from BD Biosciences were used for intracellular staining. For intracellular TNFα staining, cells were incubated with or without lipopolysaccharide (100 ngml-1, InvivoGen) in the presence of brefeldin A before surface-staining. PE-TNFα (554419, 1:200) and isotype control (554685, 1:200) from BD Biosciences were used.
Quantitative RT-PCR: Th pancreas or cells were lysed with Trizol reagent (Invitrogen) for total RNA preparation according to the manufacturer's instructions. […]

[3] = RT plus peptide compared to radiation alone, about two weeks post-RT
[4] = chronic pancreatitis mouse model, preliminary results, FIG. 1
[5] = i.p. 50 μg per mouse, 5 days per week, started 2 weeks after starting CP induction
[6] = i.p. 50 μg per mouse, 5 days per week, started 2 weeks after starting CP induction, listed as IL-4/13-blocking peptide

## TYR-CYS-ASP-ASP-PHE-VAL-GLY-SER-PHE-ASP-CYS-TYR (YCDDFVGSFDCY) [CSRM53567]
E0771 tumors
  response to radiation therapy (tumor volume): enhances response to radiation therapy
E0771 tumors; listed as IL-4/IL-13 blocking peptide
  response to radiation therapy (tumor volume): enhances the response to radiation therapy
E0771 tumors; FIG. 8B
  number of CD8+ T cells post radiation therapy: enhances the number of CD8+ T cells
E0771 tumors; [3]
  CD4+ T cells as a percentage of the CD45+ leukocytes in the tumors: fewer
  CD8+ T cells as a percentage of the CD45+ leukocytes in the tumors: more
  absolute number of CD45+ leukocytes: remained roughly the same
[1]
  mouse IL-4/IL-13-induced M2 polarization and CD206 expression: significantly decreased
Human macrophages
  hPSC-mediated M2 polarization of human macrophages (% CD206+ macrophages): capable of inhibiting
[2]; chronic pancreatitis mouse model, caerulein 3 times a week for 4 weeks, preliminary results, FIG. 1B
  macrophages in the tissue (FACS): decreases; also recorded: reduces
[2]; [4]
  fibrosis: decreased fibrosis; also recorded: reduces
  tissue volume / pancreas shrinkage: increase; also recorded: preventing pancreas shrinkage
[2]; [5]
  pancreas fibrosis (relative pancreas weight, H&E, Trichrome, α-SMA, Collagen1A1): limited pancreas fibrosis
  alternative activation of pancreatic macrophages (CD206 expression, flow cytometry): blockade of alternative activation
[2]; [6]
  pancreas fibrosis (relative pancreas weight, H&E, Trichrome, α-SMA, Collagen1A1): ameliorated
  alternative activation of pancreatic macrophages (CD206 expression, flow cytometry): decreased
[2]; i.p. 50 μg per mouse, 5 days per week, started 2 weeks after starting CP induction, FIG. 6
  established CP: ameliorates established CP
